Measured values from US20240285539A1, “PROTECTIVE COATING FOR MOISTURE SENSITIVE PHARMACEUTICAL COMPOSITIONS” (R.P. Scherer Technologies, LLC, priority 2021, published 2024).

Test: Solubility, hygroscopicity and moisture sensitivity of AKST-4290 API
Assay type: physicochemical
Description: Applicant has been able to prevent degradation utilizing the wax coating process described herein. This technique reduced the coating time and limited water uptake of core tablets improving impurity profile at T-0.
Specifically, the wax was applied as a sub-coat to the core tablets. In the case of AKST-4290, one of the purposes of this wax coat was to protect the API in the tablets from moisture. […] Although the relative humidity can be controlled during the upstream process of creating the tablet, this cannot be achieved in a coating process with aqueous solutions.

SMILES: Cc1cc(C(=O)N(C)C)cc(NC(=O)[C@H]2CCC(=O)N2C2CCN(Cc3ccc(Cl)c(C)c3)CC2)n1 [AKST-4290]
- Hygroscopicity of API (in words): highly hygroscopic
- Solubility of API (in words): highly soluble
- Stability on exposure to humidity (relative humidity over 40%, even for a couple of minutes): undergoes both physical and chemical changes
